Assay results as given in patent US20090054403A1, “Treatment of Post-Traumatic Stress Disorder” (priority 2007, published 2009).
Read-outs that look alike come from different tables or passages of the source.

Legend:
[1] = tested on: tissue noradrenaline and dopamine content; experiment: Tissue catecholamines in beagle dogs dosed b.i.d. for 4.5 days (0.05-5 mg/kg); format: in vivo
Experimental: Male beagle dogs (10-16 kg, Marshall Farms USA Inc, North Rose, N.Y., USA) were used in the study. On the day of the study, dogs were weighed and randomly assigned to be orally dosed with either empty capsules (control) or the appropriate dose of nepicastat (0.05, 0.5, 1.5 or 5 mg.kg^−1; po, b.i.d.) […]. At six hours following the first dose on day-5, the dogs were euthanized with pentobarbital and the tissues (cerebral cortex, renal artery, left ventricle) were rapidly harvested. The tissues were subsequently processed and analysed for noradrenaline and dopamine as described above.
Male beagle dogs (10-16 kg, Marshall Farms USA Inc, North Rose, N.Y.) were used in the study. On the day of the study, dogs were randomly assigned to receive either placebo (empty capsule) or the appropriate dose of 2a. Each dog was dosed twice a day for 4.5 days. 6 h after the first dose on day 5, the dogs were euthanized with pentobarbital and the tissues (cerebral cortex. renal artery, left ventricle) harvested, weighed, placed in iced 0.4 M perchloric acid, frozen in liquid nitrogen and stored at −70° C. until analysis. Tissue NE and DA concentrations were assayed by HPLC using electrochemical detection.

[2] = Pharmacokinetics after single oral dose in rats (plasma and brain); format: in vivo, rats (Crl: CD BR Vaf+); conditions: for half-life: Crl: CD BR Vaf+, rat, plasma, read-out: elimination half-life (converted)
Experimental: Male rats (Crl: CD BR Vaf+) weighing 180-220 g were fasted overnight before dosing and until 4 hr after dosing. Doses were formulated in water containing 2% 1-hydroxypropyl methylcellulose (50 centipoises viscosity), 1% benzyl alcohol, and 0.6% Tween 80 (all obtained from Sigma Chemical Company). Concentration of drug in the dose solutions was 5, 15, and 50 mg/ml for the 10, 30, and 100 mg/kg doses, respectively, and was verified by liquid chromatography (LC). The 5 mg/ml dose was a clear solution and the higher concentrations were a translucent suspension. Dose volumes were 2.0 ml/kg. At various times after dosing, samples of blood were obtained by cardiac puncture with heparinized syringes, and plasma was prepared by centrifugation. Brains of rats were surgically excised, and all samples were frozen at −20° C. until analysis.
Aliquots of plasma (0.05 or 0.5 ml) were mixed with internal standard (50 μl of methanol containing 5 μg/ml a monofluoro analog of nepicastat, and 5 mg/ml dithiothreitol). Samples were mixed with 200 mM sodium phosphate buffer, pH 7.0, (0.5 ml) and extracted with 3 ml of ethyl acetate/hexane (1/1, v/v). The organic phase containing analytes was back extracted with 250 μl of 250 mM acetic acid and 100 μl aliquots of the aqueous phase were assayed by LC. The LC system used a Keystone Hypersil BDS 15 cm C8 column at ambient temperature. Mobile phase A was 12.5 mM potassium phosphate, pH 3.0, with 5 mM dodecanesulfonic acid and mobile phase B was acetonitrile. Solvent composition was 40% B and was pumped at a flow rate of 1 ml/min. Detection was by UV absorption at 261 nm. Concentrations of analytes were determined from a standard curve generated from the analysis of plasma from untreated rats fortified with known concentrations of analyte. Plasma concentration data are expressed as μg (free base) per ml.
Brains were rinsed briefly with saline, blotted on a paper towel, then weighed (1.5-2.0 g). Internal standard was added (50 μl of methanol containing 20 μg/ml a monofluoro analog of nepicastat), and brains were homogenized in 5 ml of 200 mM sodium phosphate, pH 7.0, containing 0.5 mg/ml dithiothreitol. Aliquots of homogenate (2 ml) were extracted with 10 ml of ethyl acetate/hexane (1/1, v/v). The organic phase was gently back extracted with 150 μl of 250 mM acetic acid.
Following addition of 100 μl of methanol to the aqueous phase (to disperse any emulsion), 100 μl aliquots were assayed by LC as described for plasma. Level in brain are expressed as μg (free base) per g of brain tissue.
Pharmacokinetic parameters were calculated from mean plasma concentrations. Plasma half-life (T1/2) was calculated as 0.693/β, where β is the elimination rate constant determined by linear regression of the log plasma concentration vs. time data within the terminal linear portion of the data. Areas under the plasma concentration vs. time curve (AUC) from zero to the time of the last quantifiable plasma concentrations were calculated by the trapezoidal rule. AUC from zero to infinity (AUCtotal) was calculated as:
AUCtotal=AUC(0−Clast)+Clastβ where Clast is the last quantifiable plasma concentration.

HMG-CoA reductase = target: T1, HMG-CoA reductase (Homo sapiens, UniProt P04035); experiment: Selected enzyme assay; format: biochemical
T1 construct: PanLabs Inc (assay provider)
T1 sequence (P04035 whole entry, species assumed): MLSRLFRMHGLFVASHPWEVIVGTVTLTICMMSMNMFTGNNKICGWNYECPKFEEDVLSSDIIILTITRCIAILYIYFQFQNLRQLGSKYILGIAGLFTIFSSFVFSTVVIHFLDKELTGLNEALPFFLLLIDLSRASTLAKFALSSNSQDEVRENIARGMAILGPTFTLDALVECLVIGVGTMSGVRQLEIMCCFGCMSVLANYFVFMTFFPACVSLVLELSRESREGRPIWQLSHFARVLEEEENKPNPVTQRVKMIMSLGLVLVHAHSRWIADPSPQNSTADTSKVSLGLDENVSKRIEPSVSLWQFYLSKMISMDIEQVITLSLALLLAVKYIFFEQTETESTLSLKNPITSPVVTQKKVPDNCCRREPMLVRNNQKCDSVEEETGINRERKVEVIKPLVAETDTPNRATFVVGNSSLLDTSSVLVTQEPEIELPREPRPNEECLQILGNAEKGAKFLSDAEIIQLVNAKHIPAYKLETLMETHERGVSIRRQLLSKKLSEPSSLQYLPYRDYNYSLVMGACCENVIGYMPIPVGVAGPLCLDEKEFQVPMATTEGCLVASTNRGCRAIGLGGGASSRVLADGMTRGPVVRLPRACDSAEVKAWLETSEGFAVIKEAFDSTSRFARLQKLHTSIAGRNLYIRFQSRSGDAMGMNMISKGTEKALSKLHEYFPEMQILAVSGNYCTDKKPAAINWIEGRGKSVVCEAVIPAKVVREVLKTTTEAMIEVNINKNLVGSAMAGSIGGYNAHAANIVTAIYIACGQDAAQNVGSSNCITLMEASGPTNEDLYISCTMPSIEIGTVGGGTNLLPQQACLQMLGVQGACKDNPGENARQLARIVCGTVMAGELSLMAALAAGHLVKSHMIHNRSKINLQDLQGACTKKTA
Experimental: (§1) The activity of nepicastat at twelve selected enzymes and receptors was determined using established assays. Details of individual receptor radioligand binding assays can be found in Wong et al (1993). Binding data were analyzed by iterative curve-fitting to a four parameter logistic equation. Ki values were calculated from IC50 values using the Cheng-Prusoff equation. Enzyme inhibitory activity was expressed as IC50 (concentration required to produce 50% inhibition of enzyme activity). Male SHRs (15-16 weeks old, Charles River, Wilmington, Mass., USA) were used in the study. On the day of the study, animals were weighed and randomly assigned to be dosed with either vehicle (control) or the appropriate dose of nepicastat (3, 10, 30 or 100 mg.kg^−1, po) or (R)-5-Aminomethyl-1-(5,7-difluoro-1,2,3,4-tetrahydronaphth-2-yl)-2,3-dihydro-2-thioxo-1H-imidazole hydrochloride (30 mg.kg^−1, po) three consecutive times, twelve hours apart. At six hours after the third dose, the rats were anaesthetized with halothane, decapitated and tissues (cerebral cortex, mesenteric artery and left ventricle) were rapidly harvested, weighed, placed in iced perchloric acid (0.4 M), frozen in liquid nitrogen and stored at −70° C. until subsequent analysis. To quantify noradrenaline and dopamine concentrations, tissues were homogenized by brief sonication and centrifuged at 13,000 rpm for 30 minutes at 4° C. The supernatant, spiked with 3,4-dihydroxybenzylamine (internal standard), was assayed for noradrenaline and dopamine by HPLC using electrochemical detection.
(§2) In vitro assay of selected enzymes and neurotransmitter receptors. The activity of 2a at eleven different enzymes was determined using established assays (PanLabs Inc, Foster City, Calif.). The affinity of 2a for thirteen selected receptors was determined by radioligand binding assays using standard filtration techniques and membrane preparations. Binding data were analyzed by iterative curve fitting to a four parameter logistic equation. Ki values were calculated using the Cheng-Prusoff equation.

protein kinase C = experiment: Selected enzyme assay; format: biochemical; conditions: b560 prints protein kinase (non-selective)
Experimental: as §1, §2

[3] = tested on: cardiovascular parameters; experiment: Cardiovascular effects of acute intravenous dosing in normal anesthetized dogs; format: in vivo; conditions: 1-10 mg/kg i.v., up to five hours

Cl.NCc1c[nH]c(=S)n1[C@H]1CCc2c(F)cc(F)cc2C1 [nepicastat, (S)-5-Aminomethyl-1-(5,7-difluoro-1,2,3,4-tetrahydronaphth-2-yl)-2,3-dihydro-2-thioxo-1H-imidazole hydrochloride]
maximal increase in DA/NE ratio, artery (renal) ([1]; 5 mg/kg): 95 fold | maximal increase in DA/NE ratio, cerebral cortex ([1]; 5 mg/kg): 80 fold | maximal increase in DA/NE ratio, left ventricle ([1]; 5 mg/kg): 151 fold | decrease in noradrenaline, cerebral cortex ([1]; 5 mg/kg b.i.d. po): 96% | decrease in noradrenaline, left ventricle ([1]; 5 mg/kg b.i.d. po): 91% | decrease in noradrenaline, renal artery ([1]; 5 mg/kg b.i.d. po): 88% | increase in dopamine, cerebral cortex ([1]; 5 mg/kg b.i.d. po): 166% | increase in dopamine, left ventricle ([1]; 5 mg/kg b.i.d. po): 700% | increase in dopamine, renal artery ([1]; 5 mg/kg b.i.d. po): 627% | doses at which catecholamine changes attained statistical significance (p<0.05) ([1]; renal artery, left ventricle, cerebral cortex): > 0.1 mg/kg/day | concentrations in brain relative to plasma ([2]; 10 mg/kg oral, male rats, from 2 hr following dosing onward): exceeded those in plasma | plasma AUCtotal in female rats relative to male rats (higher by) ([2]; 30 mg/kg oral): 77% | relationship between AUCtotal and dose ([2]; 10-100 mg/kg oral, male rats): linear | half-life ([2]; 10 mg/kg oral, male rats): 1.7 h | half-life ([2]; 30 mg/kg oral, male rats): 2.09 h | half-life ([2]; 100 mg/kg oral, male rats): 3.88 h | IC50 (HMG-CoA reductase): > 10 µM | IC50 (protein kinase C): > 10 µM | cardiovascular effects [3]: no cardiovascular effects
